One assay has as its system heart failure rat model. The assay is classed as in vivo. The conditions noted are these: for cardiac contractility as measured by dP/dtmax (derivative of left ventricular pressure): male Lewis rats, heart failure by permanent ligation of left descending coronary artery, ejection fraction <35%, dosed acutely for 30 min. How it is done: Male Lewis rats (Charles River, USA) at 2-3 months of age were used for the study. […] APJ agonists were administered dose dependently acutely for a period of 30 min.

For assay [1], the system named is naive Sprague Dawley rat hearts. As to conditions: for left ventricular dP/dtmax (load independent cardiac contractility) / left ventricular dP/dtmin (load independent cardiac relaxation): ex vivo naive Sprague Dawley rat hearts, Langendorff apparatus, as a function of concentration.
The next assay addresses APJ (Homo sapiens (Human), UniProt P35414). Put plainly: [35S]GTPγS binding assay on membranes from CHO cells stably expressing human APJ receptor. The assay is classed as biochemical. In general terms: GTPγS resists hydrolysis and so accumulates on activated G proteins.
[2] abbreviates: in vivo heart failure (MI) rat, acute administration for 30 min.
The mark [3] stands for this setting: ex vivo isolated perfused rat heart, contractility, percent change over vehicle.
The mark [4] stands for this setting: ex vivo isolated perfused rat heart, relaxation (lusitropic), percent change over vehicle.
[5] abbreviates: read-out: Activity hAPJ SPA EC50 IP.

Each structure is given as a SMILES string. Values joined by “and” are separate entries in the source; they are usually repeats but may differ in a detail not shown here. Equal values may be shown once. Read-outs that look alike come from different tables or passages of the source.

Sequence of APJ (P35414 whole entry): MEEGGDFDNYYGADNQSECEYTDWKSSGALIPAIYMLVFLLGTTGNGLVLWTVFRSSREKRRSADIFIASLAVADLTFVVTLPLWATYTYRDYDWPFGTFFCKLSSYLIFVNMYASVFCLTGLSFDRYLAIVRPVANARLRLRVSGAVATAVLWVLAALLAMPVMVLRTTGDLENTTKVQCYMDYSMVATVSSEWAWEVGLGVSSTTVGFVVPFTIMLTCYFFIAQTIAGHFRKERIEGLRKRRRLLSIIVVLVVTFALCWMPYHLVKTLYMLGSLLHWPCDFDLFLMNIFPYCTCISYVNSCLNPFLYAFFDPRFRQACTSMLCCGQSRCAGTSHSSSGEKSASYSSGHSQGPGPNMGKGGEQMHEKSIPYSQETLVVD
Description for APJ: A GTPγS binding assay was performed on membranes prepared from CHO cells stably expressing human APJ receptor. The optimum experimental conditions for the concentrations of GDP, MgCl2, and NaCl in the assay buffer were initially determined. The assay was performed in assay buffer [20 mM HEPES, pH 7.5, 5 mM MgCl2, and 0.1% (w/v) BSA with 200 mM NaCl, 3 M GDP] and membranes expressing human APJ receptor/well along with WGA PS beads. The reaction was initiated by addition of 0.2 nM [^35S]GTPγS (Perkin Elmer Life and Analytical Sciences, Waltham USA) in the absence or presence of various ligands and incubated at RT for 90 min. Nonspecific binding was determined in the presence of 100 M GTPγS and was always less than 0.2% of total binding.

Consider `COc1cccc(OC)c1-n1c(NS(=O)(=O)[C@@H](C)[C@H](O)c2ncc(C)cn2)nnc1-c1cccc(C)n1` [Example 99.0], for which the “MI Rat Model dP/dtmax(%)” value with heart failure rat model (setting [2]) was 30% and 31%. Further, the “Isolated Heart Assay dP/dtmax(%)” value in assay [1] (setting [3]) was 18% and 19.7%. Also, the “Isolated Heart Assay dP/dtmin(%)” value in assay [1] (setting [4]) is 30% and 31%.
With `COc1ncnc(OC)c1-n1c(NS(=O)(=O)[C@@H](C)[C@H](OC)c2ncc(C)cn2)nnc1-c1ccccn1` [Example 628.0, (1R,2S)-N-(4-(4,6-dimethoxy-5-pyrimidinyl)-5-(2-pyridinyl)-4H-1,2,4-triazol-3-yl)-1-methoxy-1-(5-methyl-2-pyrimidinyl)-2-propanesulfonamide], in the assay on heart failure rat model (rat, in vivo), the “MI Rat Model dP/dtmax(%)” value turned out to be 15%. In addition, in assay [1], the “Isolated Heart Assay dP/dtmax(%)” value was found to be 18.3% and the “Isolated Heart Assay dP/dtmin(%)” value amounted to 18.0%.
In the case of `COc1cccc(-c2nnc(NS(=O)(=O)[C@@H](C)[C@H](OC)c3ncc(C)cn3)n2-c2c(OC)cccc2OC)n1` [Example 27.0, (1R,2S)-N-(4-(2,6-dimethoxyphenyl)-5-(6-methoxypyridin-2-yl)-4H-1,2,4-triazol-3-yl)-1-methoxy-1-(5-methylpyrimidin-2-yl)propane-2-sulfonamide], the “MI Rat Model dP/dtmax(%)” value in the assay on heart failure rat model (setting [2]) was 20%. In the assay with heart failure rat model, the “cardiac contractility as measured by dP/dtmax (derivative of left ventricular pressure)” value (shortened to “cardiac contractility as measured”) is listed as “increase in cardiac contractility”. Moreover, the “Isolated Heart Assay dP/dtmax(%)” value in assay [1] (setting [3]) came to 26%. Also, the “Isolated Heart Assay dP/dtmin(%)” value in assay [1] (setting [4]) amounted to 20%. Moreover, in assay [1], the “left ventricular dP/dtmax (load independent cardiac contractility)” value (shortened to “left ventricular dP/dtmax”) is recorded as “increases load independent cardiac contractility” and the “left ventricular dP/dtmin (load independent cardiac relaxation)” value (“left ventricular dP/dtmin” for short) was “increases load independent cardiac relaxation”.
As for `COc1cccc(OC)c1-n1c(NS(=O)(=O)[C@@H](C)[C@H](C)c2cnc(C)cn2)nnc1-c1cccnc1` [Example 198.0, (2S,3R)-N-(4-(2,6-dimethoxyphenyl)-5-(pyridin-3-yl)-4H-1,2,4-triazol-3-yl)-3-(5-methylpyrazin-2-yl)butane-2-sulfonamide], the “MI Rat Model dP/dtmax(%)” value with heart failure rat model (setting [2]) amounted to 15%. In addition, in assay [1] (setting [3]), the “Isolated Heart Assay dP/dtmax(%)” value is 15.0%. Also, the “Isolated Heart Assay dP/dtmin(%)” value in assay [1] (setting [4]) was 19.0%.
For the molecule `CCO[C@H](c1ncc(C)cn1)[C@H](C)S(=O)(=O)Nc1nnc(-c2cccnc2)n1-c1c(OC)cccc1OC` (single isomer, unassigned) [Example 109.0], the “cardiac contractility as measured” value in the assay with heart failure rat model is recorded as “increase in cardiac contractility”. For the same molecule, the “MI Rat Model dP/dtmax(%)” value with heart failure rat model (rat, in vivo) was determined as 20%. In assay [1], the “Isolated Heart Assay dP/dtmax(%)” value is listed as 15%, the “Isolated Heart Assay dP/dtmin(%)” value is listed as 25%, the “left ventricular dP/dtmax” value is on record as “increases load independent cardiac contractility” and the “left ventricular dP/dtmin” value is given as “increases load independent cardiac relaxation”.
`COc1cccc(OC)c1-n1c(NS(=O)(=O)[C@H](C)[C@@H](OC)c2ncc(Cl)cn2)nnc1-c1cncc(C)c1` (single isomer, unassigned) [Example 557.0]: the “MI Rat Model dP/dtmax(%)” value with heart failure rat model (setting [2]) is “No effect”. Also, in assay [1] (setting [3]), the “Isolated Heart Assay dP/dtmax(%)” value came out at 17.0%. Also, the “Isolated Heart Assay dP/dtmin(%)” value in assay [1] (setting [4]) is reported as 20.0%.
As to `COc1cccc(OC)c1-n1c(NS(=O)(=O)[C@@H](C)[C@H](C)c2ncc(C)cn2)nnc1-c1cccnc1` [Example 586.0, (2S,3R)-N-(4-(2,6-dimethoxyphenyl)-5-(3-pyridinyl)-4H-1,2,4-triazol-3-yl)-3-(5-methyl-2-pyrimidinyl)-2-butanesulfonamide], the “cardiac contractility as measured” value in the assay with heart failure rat model is given as “increase in cardiac contractility”. Also, in assay [1], the “Isolated Heart Assay dP/dtmax(%)” value was 15%, the “Isolated Heart Assay dP/dtmin(%)” value is 21%, the “left ventricular dP/dtmax” value is given as “increases load independent cardiac contractility” and the “left ventricular dP/dtmin” value was “increases load independent cardiac relaxation”.
Regarding `COc1cccc(OC)c1-n1c(NS(=O)(=O)[C@@H](C)[C@@H](OC(C)C)c2ncc(C)cn2)nnc1-c1cncc(C)c1` (stereo in doubt) [Example 91.0, (1S,2S)-N-(4-(2,6-dimethoxyphenyl)-5-(5-methylpyridin-3-yl)-4H-1,2,4-triazol-3-yl)-1-isopropoxy-1-(5-methylpyrimidin-2-yl)propane-2-sulfonamide], the “MI Rat Model dP/dtmax(%)” value in the assay on heart failure rat model (setting [2]) turned out to be 25%. The “Isolated Heart Assay dP/dtmax(%)” value in assay [1] (setting [3]) was 20.0%. Also, the “Isolated Heart Assay dP/dtmin(%)” value in assay [1] (setting [4]) was 43.0%.
For `COc1cccc(OC)c1-n1c(NS(=O)(=O)[C@@H](C)[C@H](OC(C)C)c2ncc(C)cn2)nnc1-c1cncc(C)c1` (stereo in doubt) [Example 93.0, (1R,2S)-N-(4-(2,6-dimethoxyphenyl)-5-(5-methylpyridin-3-yl)-4H-1,2,4-triazol-3-yl)-1-isopropoxy-1-(5-methylpyrimidin-2-yl)propane-2-sulfonamide] the same measures were 20%, 19.0% and 27.0%.
Consider `COc1cccc(OC)c1-n1c(NS(=O)(=O)[C@@H](C)Cc2ncc(F)cn2)nnc1-c1cnccc1C` (mixture of isomers) [Example 216.0, (2S)-N-(4-(2,6-dimethoxyphenyl)-5-(4-methyl-3-pyridinyl)-4H-1,2,4-triazol-3-yl)-1-(5-fluoro-2-pyrimidinyl)-2-propanesulfonamide and (2R)-N-(4-(2,6-dimethoxyphenyl)-5-(4-methyl-3-pyridinyl)-4H-1,2,4-triazol-3-yl)-1-(5-fluoro-2-pyrimidinyl)-2-propanesulfonamide], for which the EC50 at APJ (setting [5]) was determined as 0.57 µM.
On the same count and under the same terms, the same measure for `COc1cccc(OC)c1-n1c(NS(=O)(=O)[C@@H]2CCCO[C@@H]2c2ncc(C)cn2)nnc1-c1cncc(C)c1` (single isomer, unassigned) [Example 646.0]: 0.053 µM.
Consider `COc1cccc(-c2nnc(NS(=O)(=O)[C@@H](C)[C@H](OC)c3ncc(C)cn3)n2-c2c(F)cccc2F)n1.O=C(O)C(F)(F)F` [Example 684.0, (1R,2S)-N-(4-(2,6-difluorophenyl)-5-(6-methoxy-2-pyridinyl)-4H-1,2,4-triazol-3-yl)-1-methoxy-1-(5-methyl-2-pyrimidinyl)-2-propanesulfonamide], for which the “MI Rat Model dP/dtmax(%)” value with heart failure rat model (setting [2]) stood at 20%. Also, in assay [1] (setting [3]), the “Isolated Heart Assay dP/dtmax(%)” value is recorded as 19.0%. Further, the “Isolated Heart Assay dP/dtmin(%)” value in assay [1] (setting [4]) is listed as 18.3%.
For the molecule `CCO[C@@H](c1cnc(C)cn1)[C@@H](C)S(=O)(=O)Nc1nnc(-c2cccc(OC)n2)n1-c1c(OC)cccc1OC` (single isomer, unassigned) [Example 589.0, (1S,2R)-N-(4-(2,6-dimethoxyphenyl)-5-(6-methoxy-2-pyridinyl)-4H-1,2,4-triazol-3-yl)-1-ethoxy-1-(5-methyl-2-pyrazinyl)-2-propanesulfonamide or (1R,2S)-N-(4-(2,6-dimethoxyphenyl)-5-(6-methoxy-2-pyridinyl)-4H-1,2,4-triazol-3-yl)-1-ethoxy-1-(5-methyl-2-pyrazinyl)-2-propanesulfonamide], the EC50 at APJ (setting [5]) came to 0.02 µM.
At APJ (Activity hAPJ SPA EC50 IP (μM)), `COc1cccc(OC)c1-n1c(NS(=O)(=O)[C@@H](C)Cc2ncc(F)cn2)nnc1-c1cccc(C)n1` (single isomer, unassigned) [Example 619.0, (S)-N-(4-(2,6-dimethoxyphenyl)-5-(6-methylpyridin-2-yl)-4H-1,2,4-triazol-3-yl)-1-(5-fluoropyrimidin-2-yl)propane-2-sulfonamide or (R)-N-(4-(2,6-dimethoxyphenyl)-5-(6-methylpyridin-2-yl)-4H-1,2,4-triazol-3-yl)-1-(5-fluoropyrimidin-2-yl)propane-2-sulfonamide] had a concentration for a half-maximal effect (EC50) of 0.0015 µM.
Regarding `COc1cccc(OC)c1-n1c(NS(=O)(=O)[C@@H](C)Cc2ncc(F)cn2)nnc1-c1cncc(C)c1` (mixture of isomers) [Example 207.0, (S)-N-(4-(2,6-dimethoxyphenyl)-5-(5-methylpyridin-3-yl)-4H-1,2,4-triazol-3-yl)-1-(5-fluoropyrimidin-2-yl)propane-2-sulfonamide and (R)-N-(4-(2,6-dimethoxyphenyl)-5-(5-methylpyridin-3-yl)-4H-1,2,4-triazol-3-yl)-1-(5-fluoropyrimidin-2-yl)propane-2-sulfonamide], on APJ (setting [5]), the EC50 was 0.0033 µM.
For the molecule `COc1cccc(-c2nnc(NS(=O)(=O)[C@H](C)[C@H](OC(C)C)c3cnc(C)cn3)n2-c2c(OC)cccc2OC)n1` (single isomer, unassigned) [Example 825.0, (1S,2S)-N-(4-(2,6-dimethoxyphenyl)-5-(6-methoxypyridin-2-yl)-4H-1,2,4-triazol-3-yl)-1-isopropoxy-1-(5-methylpyrazin-2-yl)propane-2-sulfonamide or (1R,2R)-N-(4-(2,6-dimethoxyphenyl)-5-(6-methoxypyridin-2-yl)-4H-1,2,4-triazol-3-yl)-1-isopropoxy-1-(5-methylpyrazin-2-yl)propane-2-sulfonamide], at APJ (setting [5]), the 50% effective concentration (EC50) came to 0.00015 µM.
`COc1cccc(-c2nnc(NS(=O)(=O)[C@H](C)[C@@H](OC(C)C)c3ncc(C)cn3)n2-c2c(OC)cccc2OC)n1` (single isomer, unassigned) [Example 97.0] showed an EC50 on APJ (Activity hAPJ SPA EC50 IP (μM)) of 0.002 µM.
The molecule `COc1cccc(OC)c1-n1c(NS(=O)(=O)[C@@H](C)[C@H](OC)c2ncc(-c3ccccc3)cn2)nnc1-c1cncc(C)c1` [Example 428.0, (1R,2S)-N-(4-(2,6-dimethoxyphenyl)-5-(5-methylpyridin-3-yl)-4H-1,2,4-triazol-3-yl)-1-methoxy-1-(5-phenylpyrimidin-2-yl)propane-2-sulfonamide] displayed an EC50 at APJ (Activity hAPJ SPA EC50 IP (μM)) of 0.0025 µM.
In turn, `COc1cnc([C@@H](OC)[C@H](C)S(=O)(=O)Nc2nnc(-c3cncc(C)c3)n2-c2c(OC)cccc2OC)cn1` (single isomer, unassigned) [Example 310.0] came in with an EC50 at APJ (Activity hAPJ SPA EC50 IP (μM)) of 0.00066 µM.

Usually EC50 stands for the midpoint of the concentration-response curve.

These data come from patent US9845310B2 (priority 2015, dated 2017).
